Earlier results, collected in US7985754B2, “Selective antagonists of A2A adenosine receptors” (Trovis Pharmaceuticals, LLC, priority 2006, dated 2011).

Key:
[1] = in words
[2] = in words; remark: listed apart in the source

SMILES | solubility [1] | bioavailability [2]
Nc1nc2c(cnn2CCc2ccccc2)c2nc(-c3ccco3)nn12 [SCH58261] | very poorly soluble | 
Nc1nc(NCCc2ccc(O)cc2)nc2nc(-c3ccco3)nn12 [ZM241385] |  | poor bioavailability
